Measured values taken from ChEMBL document CHEMBL1149564, “Synthesis and bioevaluation of N-(arylalkyl)-homospermidine conjugates” (Bioorg Med Chem Lett, 2007).

Legend:
B16 [1] = experiment: Ratio of IC50 for mouse B16 cells in presence of SPD to IC50 for mouse B16 cells; assay type: functional
B16 [2] = experiment: Cell cycle arrest in B16 cells by accumulation at S phase at 0.1 uM after 24 hrs; assay type: functional, Mus musculus
B16 [3] = experiment: Cell cycle arrest in B16 cells by accumulation at G2 phase at 1 uM after 24 hrs; assay type: functional, Mus musculus
L1210 [4] = experiment: Ratio of IC50 for mouse L1210 cells to IC50 for mouse L1210 cells in presence of […]; assay type: functional
B16 [5] = experiment: Cell cycle arrest in B16 cells by accumulation at G1 phase at 1 uM after 24 hrs; assay type: functional, Mus musculus
B16 [6] = experiment: Cell cycle arrest in B16 cells by accumulation at G2 phase at 0.1 uM after 24 hrs; assay type: functional, Mus musculus
L1210 [7] = experiment: Cytotoxicity against mouse L1210 cells by MTT assay; assay type: functional, cell-based
HeLa = experiment: Cytotoxicity against human HeLa cells by MTT assay; assay type: functional, cell-based
B16 [8] = experiment: Cytotoxicity against mouse B16 cells by MTT assay; assay type: functional, cell-based
B16 [9] = experiment: Induction of apoptosis in B16 cells at 1 uM after 24 hrs; assay type: functional, Mus musculus
B16 [10] = experiment: Cell cycle arrest in B16 cells by accumulation at S phase at 1 uM after 24 hrs; assay type: functional, Mus musculus
B16 [11] = experiment: Cell cycle arrest in B16 cells by accumulation at G1 phase at 0.1 uM after 24 hrs; assay type: functional, Mus musculus
B16 [12] = experiment: Induction of apoptosis in B16 cells at 0.1 uM after 24 hrs; assay type: functional, Mus musculus
FL5.12 [13] = experiment: Induction of apoptosis in BALB/c mouse FL5.12A pro-B cells; assay type: functional
FL5.12 [14] = experiment: Induction of apoptosis in BALB/c mouse FL5.12A pro-B cells in the presence of 0.1 ng/mL IL3; assay type: functional
FL5.12 [15] = experiment: Induction of apoptosis in BALB/c mouse FL5.12A pro-B cells in the presence of 2 ng/mL IL3; assay type: functional

## Cl.NCCCCNCCCCNCc1c2ccccc2cc2ccccc12
B16 [1]
  Ratio IC50: 6.6
B16 [2]
  Activity: 11.29%
B16 [3]
  Activity: 10.1%
L1210 [4]
  Ratio IC50: 1.33
B16 [5]
  Activity: 80.19%
B16 [6]
  Activity: 10.72%
L1210 [7]
  IC50: 4.8 µM
HeLa
  IC50: 1.1 µM
B16 [8]
  IC50: 0.31 µM
B16 [9]
  Activity: 37.26%
B16 [10]
  Activity: 10.1%
B16 [11]
  Activity: 77.99%
B16 [12]
  Activity: 12.49%

## COc1ccc2cc(CNCCCCNCCCCN)ccc2c1.Cl
B16 [1]
  Ratio IC50: 3.6
L1210 [4]
  Ratio IC50: 2.69
L1210 [7]
  IC50: 15.1 µM
HeLa
  IC50: 1.2 µM
B16 [8]
  IC50: 4.88 µM

## Cl.c1ccc2cc(CNCCCCNCCCCN3CCNCC3)ccc2c1
B16 [1]
  Ratio IC50: 9
L1210 [4]
  Ratio IC50: 1.53
L1210 [7]
  IC50: 35.8 µM
HeLa
  IC50: 3.7 µM
B16 [8]
  IC50: 2.89 µM

## Cl.NCCCCNCCCCNCc1ccc2ccccc2c1
B16 [1]
  Ratio IC50: 3.8
L1210 [4]
  Ratio IC50: 2.08
L1210 [7]
  IC50: 16.9 µM
HeLa
  IC50: 1.9 µM
B16 [8]
  IC50: 1.66 µM

## N=C(N)NN [PIMAGEDINE]
FL5.12 [13]
  Activity: 80%
FL5.12 [14]
  Activity: 3%
FL5.12 [15]
  Activity: 5%

## Cl.c1ccc2c(CNCCCCNCCCCN3CCNCC3)c3ccccc3cc2c1
B16 [1]
  Ratio IC50: 2
L1210 [4]
  Ratio IC50: >2.5
L1210 [7]
  IC50: > 50 µM
HeLa
  IC50: 9.58 µM
B16 [8]
  IC50: 6.07 µM

## Cl.NCCCCNCCCCNCc1ccc(-c2ccccc2)cc1
B16 [1]
  Ratio IC50: 2.4
B16 [2]
  Activity: 40.37%
B16 [3]
  Activity: 0.04%
L1210 [4]
  Ratio IC50: 2.05
B16 [5]
  Activity: 39.13%
B16 [6]
  Activity: 10.45%
L1210 [7]
  IC50: 9.98 µM
HeLa
  IC50: 3.61 µM
B16 [8]
  IC50: 1.22 µM
B16 [9]
  Activity: 42.47%
B16 [10]
  Activity: 68.83%
B16 [11]
  Activity: 49.18%
B16 [12]
  Activity: 17.35%

## Cl.NCCCCNCCCCNCC1CCCc2ccccc21 (stereo not given)
B16 [1]
  Ratio IC50: 1.7
L1210 [4]
  Ratio IC50: 1.63
L1210 [7]
  IC50: 14.8 µM
B16 [8]
  IC50: 6.96 µM

## Cl.c1ccc(-c2ccc(CNCCCCNCCCCN3CCNCC3)cc2)cc1
L1210 [4]
  Ratio IC50: 2.71
L1210 [7]
  IC50: 20.3 µM
HeLa
  IC50: 26.8 µM
B16 [8]
  IC50: > 50 µM

## COc1ccc2cc(CNCCCCNCCCCN3CCNCC3)ccc2c1.Cl
L1210 [4]
  Ratio IC50: 1.76
L1210 [7]
  IC50: 15.1 µM
HeLa
  IC50: 11.3 µM
B16 [8]
  IC50: > 50 µM

## Cl.NCCCCNCCCCNCc1cccc2ccccc12
B16 [1]
  Ratio IC50: 2.5
L1210 [4]
  Ratio IC50: 1.58
L1210 [7]
  IC50: 8.04 µM
HeLa
  IC50: 1.38 µM
B16 [8]
  IC50: 2.33 µM

## Cl.c1ccc2c(CNCCCCNCCCCN3CCNCC3)cccc2c1
B16 [1]
  Ratio IC50: 2.3
L1210 [4]
  Ratio IC50: >1
L1210 [7]
  IC50: > 50 µM
HeLa
  IC50: 3.6 µM
B16 [8]
  IC50: 5.46 µM

## CCCCNCc1ccc2cc(OC)ccc2c1
HeLa
  IC50: 12.5 µM
B16 [8]
  IC50: 15 µM

## CCCCNCc1ccc(-c2ccccc2)cc1
HeLa
  IC50: 10.9 µM
B16 [8]
  IC50: 10.8 µM
